The source of these data is patent publication US10738080B2, “Inhibitors of beta integrin-G protein alpha subunit binding interactions” (priority 2010, dated 2020).

Assay [1] relates to c-Src. The conditions noted are these: human platelets adherent to fibrinogen. As for the experimental part:
(FIG. 3A) Washed human platelets pre-treated with DMSO, mSRI, or scrambled control peptide were allowed to adhere to fibrinogen and then solubilized at indicated time points. Proteins from lysates were immunoblotted with antibodies to c-Src phosphorylated at Tyr^416, c-Src, or RhoA. GTP-bound RhoA was measured by association with GST-RBD beads (25). See FIG. S4 for quantitative data. (FIG. 3B) Spreading of platelets treated with 0.1% DMSO, scrambled control peptide, or mSRI, in the absence or presence of C3 toxin, Y27632, or 0.01 U/ml thrombin. Platelets were stained with Alexa Fluor 546-conjugated phalloidin.
(FIG. 13A) Platelets were treated with 500 μM control peptide, mP13, mP7, or mP5 peptides, then immunoprecipitated with anti-Gα13 antibody or equal amount of control rabbit IgG. Lysates and immunoprecipitates were immunoblotted with anti-Gα13 or anti-β3 (MAb15) antibody. (FIG. 13B) Human platelets treated with DMSO, Myr-Scrambled peptide or mP5 peptide were allowed to adhere to immobilized fibrinogen, solubilized and analyzed for RhoA activation and c-Src Tyr^416 phosphorylation. (FIG. 13C) Confocal microscopy images of platelets treated with DMSO, Myristoylated Scrambled peptides, and mP5 peptide treated platelets adherent on fibrinogen for 30 minutes, without or with Rho kinase inhibitor Y27632. Merged […] (green) fluorescence and Alexa Fluor 546-conjugated phalloidin (red) fluorescence. (FIG. 13D) Flow cytometry analysis of PAR4AP (50 μM)-induced Oregon-green labelled fibrinogen binding to human platelets pre-treated with DMSO, 250 μM Myr-Scrambled peptide or 250 μM mP5 peptide. (FIG. 13E) Platelets were preincubated with mP5 or scrambled control peptides and then stimulated with thrombin in a platelet aggregometer at 37° C. Platelet aggregation traces were recorded.
Western blot bands were scanned, and analyzed for uncalibrated optical density using NIH Image J software. Student t-test was used to determine statistical significance.

For assay [2], the system named is RhoA. The experiment in a line: RhoA activity assay (GST-RBD pull down) in platelets. In kind it is cell-based, human. The conditions noted are these: human platelets adherent to fibrinogen.
Experimental: Platelets in modified Tyrode's buffer or adherent on immobilized fibrinogen were lysed quickly in 0.8 ml lysis buffer (50 mM Tris, pH 7.4, 10 mM MgCl2, 500 mM NaCl, 1% Triton X-100, 0.1% SDS, 0.5% deoxycholate, 10 μg/ml each of aprotinin and leupeptin, 1 mM phenylmethylsulfonyl fluoride, and 200 μM sodium vanadate). Lysates were cleared by centrifugation at 18,000 g for 2 minutes at 4° C., and the supernatant was incubated for 1 hour with 30 μg purified GST-Rhotekin RhoA-binding domain fusion protein (GST-RBD) bound to glutathione-Sepharose beads (S10). Samples were washed three times using washing buffer (50 mM Tris, pH 7.4, 10 mM MgCl2, 150 mM NaCl, 1% Triton X-100) and then immunoblotted with an anti-RhoA monoclonal antibody. Cell lysates were also immunoblotted with anti-RhoA as loading control.
Assay [3] deals with human platelets. In kind it is cell-based. The following applies: for integrin outside-in signaling (early phase): human platelets on fibrinogen, 250 μM peptide; for platelet spreading on fibrinogen: human platelets, immobilized fibrinogen. As for the experimental part:
The clots were photographed at various time points. […] Statistical significance was determined using t-test.
Studies using human platelets were approved by institutional review board of University of Illinois at Chicago.
Coverslides were pre-coated with 100 μg/ml fibrinogen and blocked with 5% BSA in PBS. 300 μl αIIbβ3-expressing CHO cells (expressing WT or mutant integrins; 1×10^5/ml) or platelets (1×10^7/ml) suspended in Tyrode's buffer were added to coverslides and incubated at 37° C. for various lengths of time. Cells were fixed with 4% paraformaldehyde (PFA) for 10 minutes and permeabilized with 0.1% Triton X-100 in PBS for 2 minutes. After blocking with 5% BSA for 10 minutes, coverslides were incubated with 0.2 μg/ml mAb 15, or Alexa Fluor-546 conjugated phalloidin. For mouse platelets re-express wild type β3 or the AAA mutant of β3, β3 was immuno-stained with the anti-β3 monoclonal antibody MAb 15 and Alexa Fluor-546 conjugated phalloidin. The slides were scanned with a Zeiss LSM5 10 META confocal microscope as previously described^11

The subject of assay [4] is human platelet-rich plasma. The following applies: 250 μM peptide. How it is done:
Studies using human platelets were approved by the Institutional Review Board of University of Illinois at Chicago. […] Clot retraction was analyzed with the previously described method (S6, S7). Briefly, mouse platelets (6×10^8/ml) were resuspended in platelet-depleted human plasma, and 0.4 U/ml α-thrombin was added to initiate coagulation. The clots were photographed at various time points. Sizes of retracted clots on photographs were quantified using NIH Image J software. Statistical significance was determined using t-test.
Clot Retraction Assays were carried out as follows: Similar as described before(2, 3), freshly prepared human whole blood was citrated with 1/10 volume of 3.8% sodium citrate. After centrifugation at 1300 rpm for 22 min with break, platelet rich plasma (PRP) was collected. Pre-incubated of PRP with 0.05% DMSO (vehicle), 250 μM mP5 peptide, 250 μM mP13 peptide, or their corresponding scrambled control peptides mP5Scr or mP13Scr for 5 minutes at room temperature. After that, 0.5 U/ml thrombin was added into PRP and mixed gently. The clots were formed and allowed to retract at 37° C. incubator with CO2 and were photographed at various times. The two-dimensional sizes of retracted clots on photographs were quantified using Image J software and were expressed as clot size. Statistical significance was determined using a t test (n=3).

“Also recorded” adds a separate entry of the source. Like-named read-outs stand apart in the source and are kept apart here. No end group written: not given here. *: point of attachment. Myristoyl = CCCCCCCCCCCCCC(=O)*

For the substance Myr-EEERA [mP5], in assay [1], the “integrin-dependent phosphorylation of c-Src Tyr416 (c-Src activation)” value (from here on “integrin-dependent phosphorylation”) was “inhibited”. Also, the “integrin-dependent phosphorylation” value in assay [1] (listed as Myr-P5) is “decreased”. In assay [2], the “RhoA activation (RhoA activity)” value is “increased” and the “c-Src-dependent transient RhoA inhibition” value is listed as “inhibited”. In assay [3], the “integrin outside-in signaling (early phase)” value was “selectively inhibited” and the “platelet spreading on fibrinogen” value is listed as “abolished; also recorded: inhibited”. Besides, the “platelet spreading on fibrinogen” value in assay [3] (listed as Myr-P5) is “inhibited”. In assay [4], the clot retraction entry is listed as “accelerated”.

For the substance Myristoyl-KFEEERA [mP7], the “integrin-dependent phosphorylation” value in assay [1] is listed as “inhibited”. In addition, the “c-Src-dependent transient RhoA inhibition” value in assay [2] is recorded as “inhibited”. The “platelet spreading on fibrinogen” value in assay [3] is given as “abolished”.

For the substance Myristoyl-KFEEERARAKWDT [mP13], the “integrin-dependent phosphorylation” value in assay [1] was “inhibited”. For the same substance, the “c-Src-dependent transient RhoA inhibition” value in assay [2] is “inhibited”. In assay [3], the “integrin outside-in signaling (early phase)” value is “inhibited” and the “platelet spreading on fibrinogen” value is “abolished”. In assay [4], the clot retraction result is listed as “inhibited”.

Consider Myristoyl-LLARRPTKGIHEY [mSRI], for which the “integrin-dependent phosphorylation” value in assay [1] was “inhibited”. The “RhoA activation (RhoA activity)” value in assay [2] is listed as “accelerated”. For the same substance, in assay [3] (0.01 U/ml thrombin), the thrombin-promoted platelet spreading result is listed as “abolished”. Besides, the “platelet spreading on fibrinogen” value in assay [3] is recorded as “inhibited”. Further, in assay [4], the clot retraction entry is listed as “accelerated”.
